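Tested at 5 concentrations; 48 h exposure; 96-well plates; endpoints linearly interpolated, else capped at highest concentration. GI50 is the concentration that inhibits growth by half.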 The source made the active and inactive calls. Cut-off read from the data, not from the text of the source: active = GI50 up to about 1.1 µM and inactive = higher.
Tests used:
Experiment in all cases: DTP human tumour cell line panel, 48 h
[1] = tested on: 786-0
[2] = tested on: A498
[3] = tested on: A549
[4] = tested on: ACHN
[5] = tested on: BT-549
[6] = tested on: CAKI-1
[7] = tested on: CCRF-CEM
[8] = tested on: COLO 205
[9] = tested on: DLD-1
[10] = tested on: DMS-114
[11] = tested on: DMS-273
[12] = tested on: DU-145
[13] = tested on: EKVX
[14] = tested on: HCC 2998
[15] = tested on: HCT-116
[16] = tested on: HCT-15
[17] = tested on: HL-60
[18] = tested on: HOP-18
[19] = tested on: HOP-62
[20] = tested on: HOP-92
[21] = tested on: HT-29
[22] = tested on: Hs-578T
[23] = tested on: IGROV-1
[24] = tested on: K562
[25] = tested on: KM-20L2
[26] = tested on: KM12
[27] = tested on: LOX IMVI
[28] = tested on: LXFL 529
[29] = tested on: M14
[30] = tested on: M19-MEL
[31] = tested on: MCF7
[32] = tested on: MDA-MB-231
[33] = tested on: MDA-MB-435
[34] = tested on: MDA-N
[35] = tested on: MOLT-4
[36] = tested on: Malme-3M
[37] = tested on: NCI-H226
[38] = tested on: NCI-H23
[39] = tested on: NCI-H460
[40] = tested on: NCI-H522
[41] = tested on: NCI/ADR-RES
[42] = tested on: OVCAR-3
[43] = tested on: OVCAR-4
[44] = tested on: OVCAR-5
[45] = tested on: OVCAR-8
[46] = tested on: PC-3
[47] = tested on: RPMI-8226
[48] = tested on: RXF 393
[49] = tested on: SF-268
[50] = tested on: SF-295
[51] = tested on: SF-539
[52] = tested on: SK-MEL-28
[53] = tested on: SK-MEL-2
[54] = tested on: SK-MEL-5
[55] = tested on: SK-OV-3
[56] = tested on: SN12C
[57] = tested on: SNB-19
[58] = tested on: SNB-75
[59] = tested on: SNB-78
[60] = tested on: SW-620
[61] = tested on: T47D
[62] = tested on: TK-10
[63] = tested on: U-251
[64] = tested on: UACC-257
[65] = tested on: UACC-62
[66] = tested on: UO-31
[67] = tested on: XF498
[68] = tested on: RXF 631
[69] = tested on: SR

Measured: GI50

CCN(CC)Cc1c(/C=C\c2cc(OC)c(OC)c(OC)c2)ccc(OC)c1O
active: [33] 0.264 µM | [34] 0.387 µM
inactive: [1] 3.83 µM | [2] 6.22 µM | [3] 4.25 µM | [4] 8.59 µM | [5] 6.01 µM | [6] 4.42 µM | [7] 6.53 µM | [8] 2.45 µM | [9] 4.09 µM | [10] 2.23 µM | [11] 2.2 µM | [12] 3.72 µM | [13] 6.1 µM | [14] 3.73 µM | [15] 3.33 µM | [17] 3.85 µM | [18] > 100 µM | [19] 5.02 µM | [20] 8.87 µM | [21] 2.76 µM | [22] 2.08 µM | [23] 4.2 µM | [24] 3.27 µM | [25] 3.52 µM | [26] 1.69 µM | [27] 6.24 µM | [28] 5.53 µM | [29] 2.79 µM | [30] 3.22 µM | [31] 3.17 µM | [32] 4.28 µM | [35] 15.3 µM | [36] 3.23 µM | [37] 3.67 µM | [38] 2.97 µM | [39] 3.48 µM | [40] 1.87 µM | [41] 2.16 µM | [42] 2.08 µM | [43] 12.3 µM | [44] 9.48 µM | [45] 4.1 µM | [46] 1.8 µM | [47] 3 µM | [48] 2.04 µM | [49] 5.21 µM | [50] 2.03 µM | [51] 2.29 µM | [52] 15 µM | [53] 6.62 µM | [54] 2.68 µM | [55] 2.12 µM | [56] 5.3 µM | [57] 10.3 µM | [58] 1.84 µM | [59] 4.17 µM | [60] 2.77 µM | [61] > 100 µM | [62] 9.4 µM | [63] 2.87 µM | [64] 16.8 µM | [65] 2.43 µM | [66] 6.14 µM | [67] 4.08 µM
2.71 µM: [16]

Cc1ccc2sc3cc(=O)cc(C)c-3nc2c1
inactive: [1] 55.1 µM | [3] 36.7 µM | [4] 29.2 µM | [6] 28.5 µM | [7] 17.8 µM | [8] 61.9 µM | [9] 76 µM | [10] 19.6 µM | [11] 43.3 µM | [13] 38.6 µM | [14] 50.4 µM | [15] 80.2 µM | [17] 13.8 µM | [18] > 100 µM | [19] 65 µM | [20] > 100 µM | [21] > 100 µM | [23] > 100 µM | [24] 18.6 µM | [25] > 100 µM | [26] 49.7 µM | [28] 28 µM | [29] > 100 µM | [30] 16 µM | [35] 15.7 µM | [37] > 100 µM | [38] 45.3 µM | [39] > 100 µM | [40] 20.3 µM | [42] 57.3 µM | [43] 14.2 µM | [44] > 100 µM | [45] 37.9 µM | [68] 54.1 µM | [49] 47.2 µM | [50] 33.1 µM | [51] 37.9 µM | [52] > 100 µM | [53] > 100 µM | [54] 16.6 µM | [55] > 100 µM | [56] 60.4 µM | [57] 40.8 µM | [58] > 100 µM | [59] > 100 µM | [69] 28.8 µM | [60] > 100 µM | [62] > 100 µM | [63] 32.7 µM | [64] 74.3 µM | [65] 14.3 µM | [66] 26.1 µM
40.2 µM: [16]

— ChEMBL document CHEMBL1201862, “PubChem BioAssay data set” (2004)
